# Where two headings read alike, the source gives them in different places.
# Assays:
# [1] = tested on: isolated hearts
# Text: (§1) Spraque-Dawley rats (250 to 300 g; Sasco Inc., Omaha, Nebr.) were fasted overnight to standardize the levels of glycogen and fatty acids. The animal protocol was reviewed and approved by an appropriate Animal Care and Research Committee. All animals received humane care in compliance with the “Guide for the Care and Use of Laboratory Animals” (NIH Publication No. 85-23, revised 1985). All chemicals were obtained from Sigma (St. Louis, Mo.).
# As previously described by Banerjee et al, the hearts from rats anticoagulated with heparin were excised, immediately arrested in iced oxygenated perfusate, placed on a modified Langendorff apparatus, and retrograded perfused at a constant pressure of 70 mm Hg with nonrecirculating Krebs-Henseleit solution saturated with a gas mixture of 92.5% O2 and 7.5% CO2 Banerjee et al., Circ. Res., 73, 649 (1993). […]
# The left ventricular developed pressure (LVDP, in mm Hg) was used as an index of myocardial function and was continuously recorded with a computerized bridge amplifier/digitalizer (Maclab 8, AD Instruments) and a Macintosh AV 7100 (Apple Computer). […]
# The myocardial cytochrome a,a3 redox state, oxymyoglobin (MbO2) and deoxymyoglobin, was continuously monitored using near infrared spectroscopy (NIRS). […] The resultant signal changes are continuously processed and recorded using analytic algorithms to separate the effects of each of the signals. […]
# [2] = tested on: isolated hearts; conditions: 5-minute succinate infusion
# Text: as §1
# As previously described by Banerjee et al, the hearts from rats anticoagulated with heparin were excised, immediately arrested in iced oxygenated perfusate, placed on a modified Langendorff apparatus, and retrograded perfused at a constant pressure of 70 mm Hg with nonrecirculating Krebs-Henseleit solution saturated with a gas mixture of 92.5% O2 and 7.5% CO2 Banerjee et al., Circ. Res., 73, 649 (1993). A water-filled latex balloon was inserted into the left ventricle (LV) and the balloon volume was adjusted to achieve a stable LV end-diastolic pressure of 5 mm Hg. This volume was then kept constant for the duration of the study. Pacing wires were fixed to the right atrium, and the hearts were paced at 350 beats per minute except during ischemia and the first three minutes of reperfusion.
# The left ventricular developed pressure (LVDP, in mm Hg) was used as an index of myocardial function and was continuously recorded with a computerized bridge amplifier/digitalizer (Maclab 8, AD Instruments) and a Macintosh AV 7100 (Apple Computer). Hearts unable to initially produce 90 to 120 mm Hg LVDP when paced at 350 beats per minute were discarded. A stopcock above the aortic root was turned to create global ischemia, during which time the heart was placed in a degassed humidified chamber at 37° C.
# The myocardial cytochrome a,a3 redox state, oxymyoglobin (MbO2) and deoxymyoglobin, was continuously monitored using near infrared spectroscopy (NIRS). The use of NIRS to study cardiac metabolism was described previously. In this study, a single NIRS probe (as disclosed in co-pending U.S. patent application Ser. No. 08/672,625) containing five fiber optic bundles (four peripherally arranged to supply infrared light (700 to 1000 nm) and one fiber positioned 4 mm away to receive the transmitted light) was placed on the lift ventricle. For each heart, a signal reference zero value is set at the beginning of the study. The resultant signal changes are continuously processed and recorded using analytic algorithms to separate the effects of each of the signals. The resulting NIRS measurements were taken directly from the monitor and plotted in absorption units versus time. These strips were then printed and saved for subsequent analysis.
# In the second phase of the study, 12 isolated hearts were placed on the Langendorff apparatus as described above. After the equilibration period, 5-minute infusions of succinate at concentrations of 0, 2 ,20 ,200, and 2000 μmol/L were delivered via a Harvard infusion pump directly into a port above the aortic cannula at 0.068 mL/minute. LVDP, heart rate, cytochrome a,a3 redox state, MbO2 and deoxymyoglobin were continuously monitored as described above.
# [3] = lower concentrations, non-ischemic heart
smiles,measurement,setting,value
O=C(O)CCC(=O)O [succinate],"cytochrome a,a3 redox state on reperfusion","[1]; 200 μmol/L succinate for first 5 minutes of reperfusion after 20 min global ischemia, versus control buffer",attenuation of the oxidation
same,"coupling relationship between oxyhemoglobin and the redox state of cytochrome a,a3",[1]; succinate given early in reperfusion at the described dosages,restores the coupling relationship
same,LVDP (left ventricular developed pressure),[2]; 20 μmol/L,not different from control
same,"cytochrome a,a3 redox state",[2]; 20 μmol/L,"reduction of the cytochrome a,a3 redox state"
same,LVDP (left ventricular developed pressure),[2]; 200 μmol/L,not different from control
same,"cytochrome a,a3 redox state",[2]; 200 μmol/L,"reduction of the cytochrome a,a3 redox state"
same,LVDP (left ventricular developed pressure),[2]; 2000 μmol/L,markedly reduced
same,"cytochrome a,a3 redox state",[2]; 2000 μmol/L,markedly reduced
same,LVDP (left ventricular developed pressure),[2]; [3],minimal effects
same,"cytochrome a,a3 redox state",[2]; [3],minimal effects

# Reference: patent US6712802B1, “Metabolic therapy directed at electron transport” (priority 1997, dated 2004)
